The MIC is the least concentration at which growth counts as inhibited. As a reminder, the MBC is the lowest tested concentration that kills the bacteria rather than only halting them.

The source of these data is ChEMBL document CHEMBL5500342, “Rational molecular design converting fascaplysin derivatives to potent broad-spectrum inhibitors against bacterial pathogens via targeting FtsZ” (Eur J Med Chem, 2024).

Activity calls are given as the source filed them. No cut-off for these calls is given here. Where only a bound is given, the exact number is not on record here.

The test system of series [1] is Pseudomonas aeruginosa. Put plainly: Antibacterial activity against Pseudomonas aeruginosa BNCC337940 assessed as inhibition of bacterial growth incubated for 18 hrs by CLSI protocol based microbroth dilution method. Type of series: functional.
The subject of series [2] is Escherichia coli. Put plainly: Bactericidal activity against penicillin-susceptible Escherichia coli ATCC25922 incubated for 24 hrs by CLSI protocol based microbroth dilution method. Type of series: functional. Background: In broth dilution the organism is exposed to a series of concentrations in liquid medium.
The nature of series [3]: Selectivity ratio of MBC for bactericidal activity against penicillin-susceptible Escherichia coli ATCC25922 to MIC for antibacterial activity against penicillin-susceptible Escherichia coli ATCC25922. The series is classed as functional.
The subject of series [4] is Staphylococcus aureus. The series is described as follows: Antibacterial activity against methicillin-resistant Staphylococcus aureus ATCC43300 assessed as reduction in bacterial count at 1 times of MIC incubated for 24 hrs by time kill kinetics assay. The series is classed as functional, organism-based.
Series [5] concerns Staphylococcus aureus. Put plainly: Antibacterial activity against methicillin-resistant Staphylococcus aureus ATCC43300 assessed as reduction in bacterial count at 2 times of MIC incubated for 24 hrs by time kill kinetics assay. Type of series: functional, organism-based.
The test system of series [6] is Staphylococcus aureus. The series is described as follows: Antibacterial activity against methicillin-resistant Staphylococcus aureus ATCC43300 assessed as reduction in bacterial count at 4 times of MIC incubated for 24 hrs by time kill kinetics assay. Type of series: functional, organism-based.
Series [7] relates to Staphylococcus aureus. Put plainly: Antibacterial activity against methicillin-resistant Staphylococcus aureus ATCC43300 assessed as log reduction in bacterial count measured within 0.5 hrs by time kill kinetics assay. Type of series: functional.
Series [8] deals with Staphylococcus aureus. The series is described as follows: Antibacterial activity against methicillin-resistant Staphylococcus aureus ATCC43300 at assessed as reduction in bacterial growth at 0.5 times of MIC incubated for 18 to 24 hrs and measured after 25 passages by drug resistance assay. The series is classed as functional, organism-based.
The test system of series [9] is Cell membrane. The series is described as follows: Disruption of cell membrane integrity in methicillin-resistant Staphylococcus aureus ATCC43300 assessed as morphological deformation at 4 times of MIC incubated for 2 hrs by transmission electron microscopic analysis. Type of series: cell membranes.
Series [10] relates to Cell membrane. Put plainly: Disruption of cell membrane integrity in methicillin-resistant Staphylococcus aureus ATCC43300 assessed as ghost cell formation at 4 times of MIC incubated for 2 hrs by transmission electron microscopic analysis. The series is classed as cell membranes.
The test system of series [11] is Cell membrane. The series is described as follows: Disruption of cell membrane integrity in methicillin-resistant Staphylococcus aureus ATCC43300 assessed as appearance of striated structures at 4 times of MIC incubated for 2 hrs by scanning electron microscopic analysis. Type of series: cell membranes.
The test system of series [12] is Cell membrane. The series is described as follows: Disruption of cell membrane integrity in methicillin-resistant Staphylococcus aureus ATCC43300 assessed as appearance of sunken fine microstructures at 4 times of MIC incubated for 2 hrs by scanning electron microscopic analysis. Type of series: cell membranes.
The subject of series [13] is Cell membrane. Put plainly: Disruption of cell membrane integrity in penicillin-susceptible Escherichia coli ATCC25922 assessed as cell deformation at 4 times of MIC incubated for 2 hrs by transmission electron microscopic analysis. The series is classed as cell membranes.
The test system of series [14] is Cell membrane. Put plainly: Disruption of cell membrane integrity in penicillin-susceptible Escherichia coli ATCC25922 at 4 times of MIC incubated for 2 hrs by scanning electron microscopic analysis. Type of series: cell membranes.
The test system of series [15] is Bacillus subtilis. Put plainly: Induction of morphological changes in Bacillus subtilis BNCC336690 assessed as cell elongation by measuring cell length at 0.5 times of MIC incubated for 4 hrs by optical microscopic analysis. The series is classed as functional.
Series [16] relates to Staphylococcus aureus. Put plainly: Induction of morphological changes in methicillin-resistant Staphylococcus aureus ATCC43300 assessed as swelling at 0.5 times of MIC incubated for 4 hrs by optical microscopic analysis. The series is classed as functional, organism-based.
The target in series [17] is T1, Cell division protein FtsZ (Escherichia coli K-12) (UniProt P0A9A6).
T1 sequence (whole entry): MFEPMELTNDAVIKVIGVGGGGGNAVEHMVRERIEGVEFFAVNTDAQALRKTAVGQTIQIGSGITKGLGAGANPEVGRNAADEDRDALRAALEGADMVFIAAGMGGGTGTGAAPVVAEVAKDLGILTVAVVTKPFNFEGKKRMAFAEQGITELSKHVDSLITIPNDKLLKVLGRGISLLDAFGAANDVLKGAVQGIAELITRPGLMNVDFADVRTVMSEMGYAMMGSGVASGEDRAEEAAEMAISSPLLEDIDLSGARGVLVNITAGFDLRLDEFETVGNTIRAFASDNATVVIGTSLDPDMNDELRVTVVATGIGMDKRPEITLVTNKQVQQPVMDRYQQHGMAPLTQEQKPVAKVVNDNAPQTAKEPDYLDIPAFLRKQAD
Put plainly: Induction of recombinant FtsZ polymerization in penicillin-susceptible Escherichia coli ATCC25922 assessed as bundling of FtsZ protofilaments at 1 to 4 microg/ml incubated for 10 mins by light scattering assay. To be noted: filed as activator, dose 1-4 µg/ml.

The target in series [18] is T1, Cell division protein FtsZ (Escherichia coli K-12). The series is described as follows: Induction of recombinant FtsZ polymerization in penicillin-susceptible Escherichia coli ATCC25922 assessed as stabilization of FtsZ polymers at 1 to 4 microg/ml incubated for 10 mins by light scattering assay. To be noted: filed as activator, dose 1-4 µg/ml.
Series [19] has the same target. Put plainly: Induction of recombinant FtsZ polymerization in penicillin-susceptible Escherichia coli ATCC25922 assessed as stabilization of FtsZ bundles at 1 to 4 microg/ml incubated for 10 mins by light scattering assay. Conditions: filed as activator, dose 1-4 µg/ml.
Series [20] concerns the target T2, Cell division protein FtsZ (Staphylococcus aureus) (UniProt P0A031).
T2 sequence (whole entry): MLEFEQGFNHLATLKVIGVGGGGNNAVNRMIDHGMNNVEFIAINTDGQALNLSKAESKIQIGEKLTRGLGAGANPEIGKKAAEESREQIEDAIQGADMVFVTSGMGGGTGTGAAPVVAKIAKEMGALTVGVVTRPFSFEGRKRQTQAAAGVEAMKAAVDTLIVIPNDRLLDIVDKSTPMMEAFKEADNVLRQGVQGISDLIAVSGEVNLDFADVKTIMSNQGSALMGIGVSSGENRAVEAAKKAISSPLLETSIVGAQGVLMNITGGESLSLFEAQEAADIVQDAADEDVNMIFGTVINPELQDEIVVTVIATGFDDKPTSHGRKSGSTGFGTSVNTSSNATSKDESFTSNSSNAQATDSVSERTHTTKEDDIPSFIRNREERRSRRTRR
Put plainly: Induction of FtsZ polymerization in methicillin-resistant Staphylococcus aureus ATCC43300 assessed as increase in thickness of assembly at 4 microg/ml preincubated for 10 mins followed by GTP addition and measured after 15 mins by transmission electron microscopic analysis. Conditions: filed as activator, dose 4.0 µg/ml, time 25.0 min.

Series [21] deals with T1, Cell division protein FtsZ (Escherichia coli K-12). Put plainly: Induction of FtsZ polymerization in penicillin-susceptible Escherichia coli ATCC25922 assessed as bundling of FtsZ protofilaments at 4 microg/ml preincubated for 10 mins followed by GTP addition and measured after 15 mins by transmission electron microscopic analysis. Conditions: filed as activator, dose 4.0 µg/ml, time 25.0 min.

Series [22] has the same target. Put plainly: Induction of FtsZ polymerization in penicillin-susceptible Escherichia coli ATCC25922 assessed as thicker bundles at 4 microg/ml preincubated for 10 mins followed by GTP addition and measured after 15 mins by transmission electron microscopic analysis. Conditions: filed as activator, dose 4.0 µg/ml, time 25.0 min.
For series [23], the target named is T2, Cell division protein FtsZ (Staphylococcus aureus). The series is described as follows: Effect on FtsZ GTPase activity in methicillin-resistant Staphylococcus aureus ATCC43300 upto 8 microg/ml incubated for 30 mins by malachite green phosphate based assay. Conditions: dose <= 8.0 µg/ml.
Series [24] has as its system Erythrocyte. Put plainly: Hemolytic activity in human erythrocytes at 0.195 to 25 microg/ml incubated for 1 hrs by absorbance based assay. Type of series: toxicity, cell-based. To be noted: dose 0.195-25 µg/ml.

Turning to `O=C1c2ccccc2-[n+]2ccc3c([nH]c4ccc(-c5ccccc5Cl)cc43)c21.[Cl-]`, in series [1], the MIC is more than 200 µg/mL. This compound also returned an MBC in series [2] of 50 µg/mL. In [3], the Selectivity ratio is on record as 4. Besides, the outcome in [4], in series [5], in [6], in series [8], in series [9] and in series [10] was Active. Besides, the result in series [11], in series [12], in series [13], in [14], in series [16] and in series [17] was Active. For the same compound, the outcome in series [18], in [19], in series [20], in series [21] and in series [22] was Active. Also, the Activity is given as more than 3 log10CFU/ml in [7], more than 50 um in [15] and “Non-Toxic” in series [24]. In series [23], the outcome was inactive.
`O=C1c2ccccc2-[n+]2ccc3c([nH]c4ccc(-c5ccccc5F)cc43)c21.[Cl-]`: the MIC in series [1] is more than 200 µg/mL. This compound had a minimum bactericidal concentration (MBC) in series [2] of 6.25 µg/mL. The Selectivity ratio in series [3] was found to be 1. Further, the outcome in [4], in series [5], in series [6], in series [8], in series [9] and in series [10] was Active. Besides, the outcome in series [11], in series [12], in series [13], in series [14], in series [16] and in series [17] was Active. The result in series [18], in [19], in series [20], in series [21] and in [22] was Active. The values for the Activity in series [7], in series [15] and in [24] were more than 3 log10CFU/ml, more than 50 um and “Non-Toxic”, respectively. Further, in series [23], the outcome was inactive.
`O=C1c2ccccc2-[n+]2ccc3c([nH]c4ccc(-c5ccccc5C(F)(F)F)cc43)c21.[Cl-]`: the MIC in series [1] was more than 200 µg/mL. Besides, the MBC in series [2] was determined as 50 µg/mL. The Selectivity ratio in [3] is reported as 4. Also, the outcome in series [4], in [5], in series [6], in [8], in series [9] and in series [10] was Active. The outcome in [11], in series [12], in series [13], in series [14], in series [16] and in [17] was Active. Moreover, the result in series [18], in [19], in series [20], in series [21] and in series [22] was Active. The results for the Activity in series [7], in [15] and in series [24] were more than 3 log10CFU/ml, more than 50 um and “Non-Toxic”, respectively. Besides, the result in [23] was inactive.
